Where two headings read alike, the source gives them in different places. Blank lines part the entries; values can stand above or below the compound they belong to.
Columns and labels:
HIV-1 strain HTLVIIIB = test: p24 enzyme immunoassay of HIV replication in HTLVIIIB-infected peripheral blood mononuclear cells; type: cell-based
Description: The HIV-1 strain HTLVIIIB (kindly provided by Dr. Neal T. Wetherall, VIROMED Laboratories, Inc.), was propagated in CCRF-CEM cells, and used in in vitro assays of the anti-HIV-1 activity of the synthesized novel derivatives. Cell-free supernatants of HTLVIIIB-infected CCRF-CEM cells were harvested, dispensed into 1 ml aliquots, and frozen at −70° C.
The incubated cells were then exposed to HIV-1 at a multiplicity of infection (MOI) of 0.1 during a one-hour adsorption period at 37° C. in a humidified 5% CO2 atmosphere. […] Aliquots of culture supernatants were removed from the wells on the 7th day after infection for p24 antigen assays. […] Ag.
The applied p24 enzyme immunoassay (EIA) was the unmodified kinetic assay commercially available from Coulter Corporation/Immunotech, Inc. (Westbrooke, Me.). In the assay, a murine monoclonal antibody against HIV core protein is coated onto microwell strips. Antigen (HIV core protein) present in the test culture supernatant samples binds the antibody and the bound antibody-antigen complex is quantitated. Percent viral inhibition was calculated by comparing the p24 values from the test substance-treated infected cells with p24 values from untreated infected cells (i.e., virus controls).

non-infected PBMNC = test: Microculture Tetrazolium Assay (MTA) of cell viability; type: cell-based, human; settings: for IC50: Table 7, concentration decreasing cellular proliferation by 50%
Description: (§1) Ag. […] In brief, non-infected PBMNC were treated with test compounds or controls for 7 days under identical experimental conditions and 2,3-bis(2-methoxy-4-nitro-5-sulfophenyl)-5-[(phenylamino)-carbonyl]-2H-tetrazolium hydroxide ([…]), was added to quantitative cellular proliferation.

[1] = molecular target: recombinant HIV-1 reverse transcriptase (rRT) (Human immunodeficiency virus type 1 group M subtype B, UniProt P04585); test: Quan-T-RT cell-free assay of recombinant HIV-1 reverse transcriptase activity; type: biochemical
Description: In addition, the activity of the test compounds to inhibit recombinant HIV-1 reverse transcriptase (rRT) activity was determined using the Quan-T-RT assay system (Amersham, Arlington Heights, Ill.), which utilizes the scintillation proximity assay principle. […] Data for both bioassays is reported as IC50 values.

[2] = Microculture Tetrazolium Assay (MTA) of cell viability; type: cell-based, human; settings: human; for CC50 at 7 days: non-infected PBMNC, Table 4
Description: as §1

[3] = Table 7, HIV-infected peripheral blood mononuclear cells, read-out: IC50 [p24]
[4] = Table 4, DABO compounds, purified recombinant HIV RT, read-out: IC50 [rRT]
[5] = Table 6, recombinant HIV reverse transcriptase assay, read-out: IC50 rRT
[6] = Human immunodeficiency virus 1, PBMC, read-out: IC50 [p24]
[7] = Table 5, HIV-infected PBMNC, read-out: IC50 p24
[8] = Human immunodeficiency virus 1, PBMC, Table 6, read-out: IC50 p24
[9] = Human immunodeficiency virus 1, PBMC, HIV-infected human peripheral blood mononuclear cells, read-out: IC50 for inhibition of HIV replication (p24 production)

SMILES: Cc1cn([C@H]2C[C@H](N=[N+]=[N-])[C@@H](CO)O2)c(=O)[nH]c1=O [AZT, reference compound]
IC50 (HIV-1 strain HTLVIIIB; 3 of 3 independent experiments for I-4, read-out: IC50 anti-HIV activity (p24)): 8 nM
IC50 (HIV-1 strain HTLVIIIB; Table 4, HTLVIIIB-infected peripheral blood mononuclear cells, read-out: IC50 [p24]): 40 nM
IC50 (HIV-1 strain HTLVIIIB; Table 6, read-out: IC50 p24): 4 nM
IC50 (HIV-1 strain HTLVIIIB; [3]): 4 nM
CC50 (non-infected PBMNC; Table 4): 50000 nM
IC50 (non-infected PBMNC): 50000 nM
IC50 [1, 4]: > 100000 nM
IC50 [1, 5]: > 100000 nM

SMILES: CSCSc1nc(Cc2ccccc2)c(C)c(=O)[nH]1 [Compound 3a, 5-methyl-2-[(methylthiomethyl)thio]-6-benzyl-pyrimidin-4-1H-one]
IC50 (HIV-1 strain HTLVIIIB; [6]): 4500 nM
CC50 at 7 days [2]: > 100000 nM
IC50 [1, 4]: 18800 nM

SMILES: CCc1c(Cc2ccccc2)nc(SCSC)[nH]c1=O [Compound 3b, 5-ethyl-2-[(methylthiomethyl)thio]-6-benzyl-pyrimidin-4-1H-one]
IC50 (HIV-1 strain HTLVIIIB; [6]): 800 nM
CC50 at 7 days [2]: > 100000 nM
IC50 [1, 4]: 9700 nM

SMILES: CSCSc1nc(Cc2ccccc2)c(C(C)C)c(=O)[nH]1 [Compound 3c, 5-isopropyl-2-[(methylthiomethyl)thio]-benzyl-pyrimidin-4-1H-one]
selectivity index (IC50[MTA]/IC50[p24]) (HIV-1 strain HTLVIIIB): > 100,000
fold more active than AZT and MKC-442 (HIV-1 strain HTLVIIIB; HIV replication): more than 4 fold
IC50 (HIV-1 strain HTLVIIIB; [6]): < 1 nM
IC50 (HIV-1 strain HTLVIIIB; Human immunodeficiency virus 1, PBMC, read-out: IC50 for inhibition of HIV replication (p24 production)): < 1 nM
inhibition of cellular proliferation as measured by MTA (non-infected PBMNC; no detectable cytotoxicity): > 100 µM
CC50 at 7 days [2]: > 100000 nM

SMILES: CSCSc1nc(Cc2cc(C)cc(C)c2)c(C(C)C)c(=O)[nH]1 [Compound 3d, 5-isopropyl-2-[(methylthiomethyl)thio]-6-(3,5-dimethylbenzyl)-pyrimidin-4-1H-one]
IC50 [1, 4]: 4800 nM

SMILES: S=C(NCCc1ccccn1)Nc1ccccn1 [Compound I-1, N-[2-(2-pyridylethyl)]-N′-[2-(pyridyl)]-thiourea]
IC50 (HIV-1 strain HTLVIIIB; [7]): 230 nM

SMILES: S=C(NCCN1CCCCC1)Nc1ccc(Br)cn1 [Compound I-3, N-[2-(1-piperidinoethyl)]-N′-[2-(5-bromopyridyl)]-thiourea]
IC50 (HIV-1 strain HTLVIIIB; [7]): < 1 nM

SMILES: COc1ccc(OC)c(CCNC(=S)Nc2ccc(Br)cn2)c1 [Compound I-4, N-[2-(2,5-dimethoxyphenylethyl)]-N′-[2-(5-bromopyridyl)]-thiourea]
IC50 (HIV-1 strain HTLVIIIB; Human immunodeficiency virus 1, PBMC, 3 of 3 independent experiments for I-4, read-out: IC50 anti-HIV activity (p24)): < 1 nM
IC50 (HIV-1 strain HTLVIIIB; Human immunodeficiency virus 1, PBMC, Table 5, HIV-infected PBMNC, read-out: IC50 p24): < 1 nM
melting point: 133 to 138 °C
times more potent than trovirdine against recombinant HIV RT [1]: 8

SMILES: COc1ccccc1CCNC(=S)Nc1ccc(Br)cn1 [II-1, N-[2-(2-methoxyphenethyl)]-N′-[2-(5-bromopyridyl)]-thiourea]
IC50 (HIV-1 strain HTLVIIIB; [8]): 10 nM
melting point: 143 to 145 °C
IC50 [1]: 1000 nM

SMILES: Fc1ccccc1CCNC(=S)Nc1ccc(Br)cn1 [II-2, N-[2-(2-fluorophenethyl)]-N′-[2-(5-bromopyridyl)]-thiourea]
IC50 (HIV-1 strain HTLVIIIB; [9]): < 1 nM
IC50 (HIV-1 strain HTLVIIIB; [8]): < 1 nM
melting point: 156 to 157 °C
IC50 [1]: 600 nM

SMILES: S=C(NCCc1ccccc1Cl)Nc1ccc(Br)cn1 [II-3, N-[2-(2-chlorophenethyl)]-N′-[2-(5-bromopyridyl)]-thiourea]
IC50 (HIV-1 strain HTLVIIIB; [9]): < 1 nM
IC50 (HIV-1 strain HTLVIIIB; [8]): < 1 nM
melting point: 137 to 139 °C
IC50 [1]: 700 nM

SMILES: COc1cccc(CCNC(=S)Nc2ccc(Br)cn2)c1 [II-4, N-[2-(3-metboxyphenethyl)]-N′-[2-(5-bromopyridyl)]-thiourea]
selectivity index (IC50[MTA]/IC50[p24]) (HIV-1 strain HTLVIIIB): > 3×10^4
IC50 (HIV-1 strain HTLVIIIB; [9]): 3 nM
IC50 (HIV-1 strain HTLVIIIB; [8]): 3 nM
melting point: 155 to 156 °C
IC50 [1]: 400 nM
times more potent than trovirdine against recombinant HIV RT [1]: approximately 2

SMILES: Fc1cccc(CCNC(=S)Nc2ccc(Br)cn2)c1 [II-5, N-[2-(3-fluorophenethyl)]-N′-[2-(5-bromopyridyl)]-thiourea]
IC50 (HIV-1 strain HTLVIIIB; [9]): < 1 nM
IC50 (HIV-1 strain HTLVIIIB; [8]): < 1 nM
melting point: 171 to 172 °C
IC50 [1]: 700 nM

SMILES: S=C(NCCc1cccc(Cl)c1)Nc1ccc(Br)cn1 [II-6, N-[2-(3-chlorophenethyl)]-N′-[2-(5-bromopyridyl)]-thiourea]
melting point: 163 to 165 °C
IC50 [1, 5]: 3100 nM

IC50 (HIV-1 strain HTLVIIIB; [9]): 15 nM
IC50 (HIV-1 strain HTLVIIIB; [8]): 15 nM
melting point: 178 to 179 °C
SMILES: COc1ccc(CCNC(=S)Nc2ccc(Br)cn2)cc1 [II-7, N-[2-(4-methoxyphenethyl)]-N′-[2-(5-bromopyridyl)]-thiourea]

SMILES: Fc1ccc(CCNC(=S)Nc2ccc(Br)cn2)cc1 [II-8, N-[2-(4-fluorophenethyl)]-N′-[2-(5-bromopyridyl)]-thiourea]
melting point: 177 to 178 °C
fold less active than meta and ortho F compounds (IC50[rRT]) [1]: 10 fold
IC50 [1, 5]: 6400 nM

melting point: 180 to 183 °C
SMILES: S=C(NCCc1ccc(Cl)cc1)Nc1ccc(Br)cn1 [II-9, N-[2-(4-chlorophenethyl)]-N′-[2-(5-bromopyridyl)]-thiourea]

SMILES: S=C(NCCN1CCCCC1)Nc1ccc(Br)cn1 [III-1, N-[2-(1-piperidinylethyl)]-N′-[2-(5-bromopyridyl)]-thiourea]
IC50 (HIV-1 strain HTLVIIIB; [3]): < 1 nM
IC50 (non-infected PBMNC): > 100000 nM

SMILES: S=C(NCCN1CCNCC1)Nc1ccc(Br)cn1 [III-2, N-[2-(1-piperizinylethyl)]-N′-[2-(5-bromopyridyl)]-thiourea]
IC50 (HIV-1 strain HTLVIIIB; [3]): 2 nM
IC50 (non-infected PBMNC): > 100000 nM

SMILES: S=C(NCCN1CCOCC1)Nc1ccc(Br)cn1 [III-3, N-[2-(1-morpholinylethyl)]-N′-[2-(5-bromopyridyl)]-thiourea]
IC50 (HIV-1 strain HTLVIIIB; [3]): < 1 nM
IC50 (non-infected PBMNC): > 100000 nM

SMILES: CCOCn1c(Cc2ccccc2)c(C(C)C)c(=O)[nH]c1=O [MKC-442, reference compound]
CC50 at 7 days [2]: > 100000 nM

IC50 (HIV-1 strain HTLVIIIB; [6]): 7 nM
IC50 (HIV-1 strain HTLVIIIB; Human immunodeficiency virus 1, PBMC, read-out: IC50 anti-HIV activity (p24)): 7 nM
IC50 (HIV-1 strain HTLVIIIB; Human immunodeficiency virus 1, PBMC, read-out: IC50 p24): 7 nM
SMILES: S=C(NCCc1ccccn1)Nc1ccc(Br)cn1 [Trovirdine, reference compound]
IC50 at 7 days ([2]; Table 7, concentration decreasing cellular proliferation by 50%): > 100000 nM

Source: patent US6925388B1, “Heterocyclic nonnucleoside inhibitors of reverse transcriptase” (Parker Hughes Institute, priority 1998, dated 2005)
